In US20250034159A1, “INHIBITORS OF EPIDERMAL GROWTH FACTOR RECEPTOR” (ORIC Pharmaceuticals, Inc., priority 2021, published 2025):
Read-outs that look alike come from different tables or passages of the source.

How the values were obtained:
Ba/F3_EGFR WT cells = experiment: Biological Activity Assay D: BaF3 cell proliferation assay, EGFR wild-type (BaF3 WT); type: cell-based; conditions: Ba/F3 EGFR, read-out: BaF3 WT IC50
BaF3_EGFR LR/CS cells = experiment: Biological Activity Assay D: BaF3 cell proliferation assay, EGFR L858R/C797S mutant (BaF3 LR/CS); type: cell-based; conditions: Ba/F3 EGFR, read-out: BaF3 LR/CS IC50
BaF3_EGFR d19/CS cells = experiment: Biological Activity Assay D: BaF3 cell proliferation assay, EGFR exon 19 deletion/C797S (BaF3 d19/CS); type: cell-based; conditions: Ba/F3 EGFR, read-out: BaF3 d19/CS IC50
[1] = target: recombinant human EGFR exon 19 deletion/C797S double mutant protein (Homo sapiens (Human), UniProt P00533, C797S/DEL746-750); experiment: Biological Activity Assay C: biochemical assay against EGFR exon 19 deletion/C797S protein (EGFR d19/CS)
recombinant human EGFR exon 19 deletion/C797S double mutant protein, sequence (P00533 other isoform, or with tags, fused parts or gaps C797S/del 1-668/del 746-750 limits assumed): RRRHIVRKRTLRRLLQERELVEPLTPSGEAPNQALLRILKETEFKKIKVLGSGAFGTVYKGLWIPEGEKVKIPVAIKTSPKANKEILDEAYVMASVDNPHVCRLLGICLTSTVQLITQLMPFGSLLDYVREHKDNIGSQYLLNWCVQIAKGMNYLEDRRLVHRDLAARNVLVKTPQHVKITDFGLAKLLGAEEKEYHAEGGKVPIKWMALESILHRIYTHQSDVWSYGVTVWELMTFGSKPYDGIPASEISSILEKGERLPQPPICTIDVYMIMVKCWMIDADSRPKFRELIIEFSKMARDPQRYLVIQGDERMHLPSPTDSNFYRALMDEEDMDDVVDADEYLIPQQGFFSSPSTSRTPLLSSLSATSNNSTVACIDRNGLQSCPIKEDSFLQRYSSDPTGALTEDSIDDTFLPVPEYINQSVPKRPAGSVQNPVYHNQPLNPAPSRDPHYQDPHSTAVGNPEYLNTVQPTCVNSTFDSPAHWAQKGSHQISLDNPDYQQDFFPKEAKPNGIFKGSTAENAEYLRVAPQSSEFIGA
In short: (§1)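 IC50 values were fitted with a 4-parameter model to reaction slopes taken from 90 kinetic reads spaced 120 s apart. The Phosphosens sensor/ATP working solution was 40 uM/4 mM, and compound was dosed as 16-point dilutions at 2.5% final DMSO.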

[2] = target: recombinant human EGFR L858R/C797S double mutant protein (Homo sapiens (Human), UniProt P00533, C797S/L858R); experiment: Biological Activity Assay B: biochemical assay against EGFR L858R/C797S protein (EGFR LR/CS)
recombinant human EGFR L858R/C797S double mutant protein, sequence (P00533 25-1210 C797S/L858R): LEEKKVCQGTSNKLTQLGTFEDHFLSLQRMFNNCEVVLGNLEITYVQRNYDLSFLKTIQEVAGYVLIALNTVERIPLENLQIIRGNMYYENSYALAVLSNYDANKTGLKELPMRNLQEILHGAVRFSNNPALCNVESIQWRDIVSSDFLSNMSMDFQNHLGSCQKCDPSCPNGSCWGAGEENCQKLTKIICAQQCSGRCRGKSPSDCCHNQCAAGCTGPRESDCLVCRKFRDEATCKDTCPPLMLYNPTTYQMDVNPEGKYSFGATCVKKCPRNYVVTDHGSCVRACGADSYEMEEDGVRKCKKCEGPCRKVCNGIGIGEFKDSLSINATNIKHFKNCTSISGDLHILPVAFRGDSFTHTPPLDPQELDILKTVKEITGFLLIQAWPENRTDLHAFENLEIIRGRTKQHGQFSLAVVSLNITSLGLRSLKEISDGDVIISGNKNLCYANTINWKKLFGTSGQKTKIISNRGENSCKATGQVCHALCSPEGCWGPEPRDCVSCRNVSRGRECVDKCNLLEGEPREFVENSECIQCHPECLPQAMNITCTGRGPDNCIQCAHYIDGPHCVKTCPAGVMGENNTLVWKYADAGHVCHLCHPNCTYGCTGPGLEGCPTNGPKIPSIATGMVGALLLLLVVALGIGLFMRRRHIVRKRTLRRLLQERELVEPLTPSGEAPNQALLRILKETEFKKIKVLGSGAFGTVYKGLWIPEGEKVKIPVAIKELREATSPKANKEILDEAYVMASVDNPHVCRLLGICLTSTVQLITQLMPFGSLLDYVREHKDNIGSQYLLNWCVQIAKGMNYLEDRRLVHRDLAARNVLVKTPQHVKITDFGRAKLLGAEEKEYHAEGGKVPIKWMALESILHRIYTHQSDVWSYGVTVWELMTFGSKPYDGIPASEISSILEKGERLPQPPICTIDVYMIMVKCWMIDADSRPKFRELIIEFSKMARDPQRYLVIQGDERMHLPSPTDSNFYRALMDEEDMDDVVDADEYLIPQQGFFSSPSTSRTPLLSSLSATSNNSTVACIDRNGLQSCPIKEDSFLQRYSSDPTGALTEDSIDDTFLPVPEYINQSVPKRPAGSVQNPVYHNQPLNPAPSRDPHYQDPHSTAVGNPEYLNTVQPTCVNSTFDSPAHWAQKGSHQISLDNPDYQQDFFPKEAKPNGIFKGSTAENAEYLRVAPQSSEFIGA
In short: as §1

[3] = Ba/F3_EGFR WT cells, ~72 hours, CellTiter-Glo
[4] = BaF3_EGFR LR/CS cells, ~72 hours, CellTiter-Glo
[5] = BaF3_EGFR d19/CS cells, ~72 hours, CellTiter-Glo

Compound	IC50 (Ba/F3_EGFR WT cells; [3]) [nM]	IC50 (BaF3_EGFR LR/CS cells; [4]) [nM]	IC50 (BaF3_EGFR d19/CS cells; [5]) [nM]	IC50 [1] [nM]	IC50 [2] [nM]	IC50 (Ba/F3_EGFR WT cells; 72 h) [nM]	IC50 (BaF3_EGFR LR/CS cells; 72 h) [nM]	IC50 (BaF3_EGFR d19/CS cells; 72 h) [nM]
NC(=O)Cn1cc(-c2ncnc3oc(-c4ccccc4)cc23)c(-c2ccc(F)cc2)n1 [Example 106, 2-[3-(4-Fluorophenyl)-4-(6-phenylfuro[2,3-d]pyrimidin-4-yl)-1H-pyrazol-1-yl]acetamide]	1020	55.7	64.7	0.38	0.45	–	–	–
O=S1(=O)CCC(Cn2cc(-c3ncnc4oc(-c5ccccc5)cc34)c(-c3ccc(F)cc3)n2)C1 (racemic) [Example 53, 3-{[3-(4-fluorophenyl)-4-(6-phenylfuro[2,3-d]pyrimidin-4-yl)-1H-pyrazol-1-yl]methyl}-1λ6-thiolane-1,1-dione]	2130	122	40.8	0.538	0.462	–	–	–
CS(=O)(=O)N1CCC(n2cc(-c3ncnc4oc(-c5ccccc5)cc34)c(-c3ccc(F)cc3)n2)C1 (racemic) [Example 89, 4-{3-(4-fluorophenyl)-1-[1-(methanesulfonyl)pyrrolidin-3-yl]-1H-pyrazol-4-yl}-6-phenylfuro[2,3-d]pyrimidine]	373	19.9	20.4	0.3	0.38	–	–	–
OCCn1cc(-c2ncnc3oc(-c4ccccc4)cc23)c(-c2ccc(F)cc2)n1 [Example 94, 2-[3-(4-Fluorophenyl)-4-(6-phenylfuro[2,3-d]pyrimidin-4-yl)-1H-pyrazol-1-yl]ethan-1-ol]	–	–	–	0.11	0.17	1120	22.4	27.4
Fc1ccc(-c2n[nH]cc2-c2ncnc3oc(-c4ccccc4)cc23)cc1 [Example 60, 4-[3-(4-Fluorophenyl)-1H-pyrazol-4-yl]-6-phenylfuro[2,3-d]pyrimidine]	2270	88.3	118	0.419	0.526	–	–	–
CC(C)(O)CCn1nc(-c2ccc(F)cc2)c(-c2ncnc3oc(-c4ccccc4)cc23)n1 [Example 82, 4-[4-(4-fluorophenyl)-5-(6-phenylfuro[2,3-d]pyrimidin-4-yl)-2H-1,2,3-triazol-2-yl]-2-methylbutan-2-ol]	> 20000	392	597	2.86	4.33	–	–	–
Fc1ccc(-c2nn([C@@H]3CCOC3)cc2-c2ncnc3oc(-c4ccccc4)cc23)cc1 (single isomer, unassigned) [Example 90]	1510	36.2	64.9	0.24	0.51	–	–	–
O=S1(=O)CC(Cn2ncc(-c3ncnc4oc(-c5ccccc5)cc34)c2-c2ccc(F)cc2)C1 [Example 112, 3-((5-(4-fluorophenyl)-4-(6-phenylfuro[2,3-d]pyrimidin-4-yl)-1H-pyrazol-1-yl)methyl)thietane 1,1-dioxide]	7150	741	1150	12.5	12.9	–	–	–
CN1CCN(c2ccc(-c3nc4c(-c5cn(CCCO)nc5-c5ccc(F)cc5)ncnc4o3)cc2)CC1 [Example 10, 3-[3-(4-Fluorophenyl)-4-{2-[4-(4-methylpiperazin-1-yl)phenyl][1,3]oxazolo[5,4-d]pyrimidin-7-yl}-1H-pyrazol-1-yl]propan-1-ol]	74	1.63	1.31	0.113	0.152	–	–	–
O=S1(=O)CC(Cn2cc(-c3ncnc4oc(-c5ccccc5)cc34)c(-c3ccc(F)cc3)n2)C1 [Example 98, 3-{[3-(4-fluorophenyl)-4-(6-phenylfuro[2,3-d]pyrimidin-4-yl)-1H-pyrazol-1-yl]methyl}-1λ6-thietane-1,1-dione]	1860	161	212	1.27	0.82	–	–	–
CC(C)(O)Cn1cc(-c2ncnc3oc(-c4ccccc4)cc23)c(-c2ccccc2)n1 [Example 110, 2-Methyl-1-[3-phenyl-4-(6-phenylfuro[2,3-d]pyrimidin-4-yl)-1H-pyrazol-1-yl]propan-2-ol]	1380	68.7	83.1	0.33	0.69	–	–	–
NS(=O)(=O)CCn1cc(-c2ncnc3oc(-c4ccccc4)cc23)c(-c2ccc(F)cc2)n1 [Example 111, 2-[3-(4-Fluorophenyl)-4-(6-phenylfuro[2,3-d]pyrimidin-4-yl)-1H-pyrazol-1-yl]ethane-1-sulfonamide]	1140	53.7	114	0.41	0.45	–	–	–
CC(C)(O)CCn1cc(-c2ncnc3oc(-c4ccccc4)cc23)c(-c2ccc(F)cc2)n1 [Example 34, 4-[3-(4-fluorophenyl)-4-(6-phenylfuro[2,3-d]pyrimidin-4-yl)-1H-pyrazol-1-yl]-2-methylbutan-2-ol]	7780	225	122	1.59	1.17	–	–	–

The next lines start with results.

IC50 (Ba/F3_EGFR WT cells; [3]) [nM]	IC50 (BaF3_EGFR LR/CS cells; [4]) [nM]	IC50 (BaF3_EGFR d19/CS cells; [5]) [nM]	IC50 [1] [nM]	IC50 [2] [nM]	Compound	IC50 (Ba/F3_EGFR WT cells; 72 h) [nM]	IC50 (BaF3_EGFR LR/CS cells; 72 h) [nM]	IC50 (BaF3_EGFR d19/CS cells; 72 h) [nM]
2290	185	37.5	1.51	1.12	Fc1ccc(-c2nn(CCCC(F)F)cc2-c2ncnc3oc(-c4ccccc4)cc23)cc1 [Example 45, 4-[1-(4,4-Difluorobutyl)-3-(4-fluorophenyl)-1H-pyrazol-4-yl]-6-phenylfuro[2,3-d]pyrimidine]	–	–	–
1920	161	147	5.19	6.14	CS(=O)(=O)n1cc(-c2ncnc3oc(-c4ccccc4)cc23)c(-c2ccc(F)cc2)n1 [Example 39, 4-[3-(4-fluorophenyl)-1-(methanesulfonyl)-1H-pyrazol-4-yl]-6-phenylfuro[2,3-d]pyrimidine]	–	–	–
6220	231	255	0.84	0.95	CC(=O)N1CCC(n2cc(-c3ncnc4oc(-c5ccccc5)cc34)c(-c3ccc(F)cc3)n2)C1 (stereo not drawn) [Example 92, 1-{3-[3-(4-fluorophenyl)-4-(6-phenylfuro[2,3-d]pyrimidin-4-yl)-1H-pyrazol-1-yl]pyrrolidin-1-yl}ethan-1-one]	–	–	–
2080	241	59.1	1.02	0.635	CN(C)S(=O)(=O)CCn1cc(-c2ncnc3oc(-c4ccccc4)cc23)c(-c2ccc(F)cc2)n1 [Example 50, 2-[3-(4-fluorophenyl)-4-(6-phenylfuro[2,3-d]pyrimidin-4-yl)-1H-pyrazol-1-yl]-N,N-dimethylethane-1-sulfonamide]	–	–	–
1270	103	93.7	0.27	0.47	CNC(=O)CCn1cc(-c2ncnc3oc(-c4ccccc4)cc23)c(-c2ccc(F)cc2)n1 [Example 117, 3-[3-(4-fluorophenyl)-4-(6-phenylfuro[2,3-d]pyrimidin-4-yl)-1H-pyrazol-1-yl]-N-methylpropanamide]	–	–	–
> 20000	822	701	8.51	5.7	O=S1(=O)CCC[C@@H](n2cc(-c3ncnc4oc(-c5ccccc5)cc34)c(-c3ccc(F)cc3)n2)C1 (single isomer, unassigned) [Example 99]	–	–	–
2490	124	44.7	0.909	1.13	OC1(CCn2cc(-c3ncnc4oc(-c5ccccc5)cc34)c(-c3ccc(F)cc3)n2)CC1 [Example 24, 1-{2-[3-(4-fluorophenyl)-4-(6-phenylfuro[2,3-d]pyrimidin-4-yl)-1H-pyrazol-1-yl]ethyl}cyclopropan-1-ol]	–	–	–
1700	136	152	1.69	0.75	O=S1(=O)CCC(Cn2cc(-c3ncnc4oc(-c5ccccc5)cc34)c(-c3ccc(F)cc3)n2)CC1 [Example 105, 4-{[3-(4-fluorophenyl)-4-(6-phenylfuro[2,3-d]pyrimidin-4-yl)-1H-pyrazol-1-yl]methyl}-1λ6-thiane-1,1-dione]	–	–	–
1020	38.3	50.5	0.25	0.56	NC(=O)CCn1cc(-c2ncnc3oc(-c4ccccc4)cc23)c(-c2ccc(F)cc2)n1 [Example 118, 3-[3-(4-Fluorophenyl)-4-(6-phenylfuro[2,3-d]pyrimidin-4-yl)-1H-pyrazol-1-yl]propanamide]	–	–	–
2020	45.5	31	0.7	0.94	Fc1ccc(-c2nn(C3CCOCC3)cc2-c2ncnc3oc(-c4ccccc4)cc23)cc1 [Example 76, 4-[3-(4-Fluorophenyl)-1-(oxan-4-yl)-1H-pyrazol-4-yl]-6-phenylfuro[2,3-d]pyrimidine]	–	–	–
2090	57.5	37.5	0.335	0.527	O[C@H]1C[C@@H](Cn2cc(-c3ncnc4oc(-c5ccccc5)cc34)c(-c3ccc(F)cc3)n2)C1 [Example 42, (1s, 3s)-3-{[3-(4-Fluorophenyl)-4-(6-phenylfuro[2,3-d]pyrimidin-4-yl)-1H-pyrazol-1-yl]methyl}cyclobutan-1-ol]	–	–	–
